Data on seven molecules can be found in patent US5952349A, “Muscarinic antagonists for treating memory loss” (Schering Corporation, priority 1997, dated 1999).

Like-named read-outs stand apart in the source and are kept apart here.

One assay concerns m2 muscarinic. As to conditions: Baumgold et al., Eur. J. of Pharmacol., 251, (1994) 315-317; cited from earlier work.
The target of assay [1] is T1, cloned human m2 muscarinic receptor (Homo sapiens, UniProt P08172).
T1 construct: expressed in transfected cells; host or cells: CHO cells, stably transfected (membranes)
T1 sequence (P08172 1-466): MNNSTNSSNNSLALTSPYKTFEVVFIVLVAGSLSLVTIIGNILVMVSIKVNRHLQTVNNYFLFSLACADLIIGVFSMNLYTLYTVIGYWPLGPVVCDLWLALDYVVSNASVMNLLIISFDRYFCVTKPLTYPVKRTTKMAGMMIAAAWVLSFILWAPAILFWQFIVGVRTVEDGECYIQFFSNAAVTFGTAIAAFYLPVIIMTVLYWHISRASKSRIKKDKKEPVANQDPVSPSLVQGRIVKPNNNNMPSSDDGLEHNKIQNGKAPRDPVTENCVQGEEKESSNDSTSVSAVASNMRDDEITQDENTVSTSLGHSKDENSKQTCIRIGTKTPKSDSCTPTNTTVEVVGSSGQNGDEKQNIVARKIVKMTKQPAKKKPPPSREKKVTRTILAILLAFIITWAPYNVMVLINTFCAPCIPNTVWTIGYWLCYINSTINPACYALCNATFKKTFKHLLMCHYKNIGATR
Put plainly: Muscarinic binding activity: inhibition of 3H-QNB binding, m2 (and m2 selectivity). The following applies: for m2 Selectivity Ratio (Ki,m1/Ki,m2): Ki for m1 divided by Ki for m2, higher = greater m2 selectivity.

The target in assay [2] is T2, cloned human m4 muscarinic receptor (Homo sapiens, UniProt P08173).
T2 construct: expressed in transfected cells; host or cells: CHO cells, stably transfected (membranes)
T2 sequence (P08173 1-479): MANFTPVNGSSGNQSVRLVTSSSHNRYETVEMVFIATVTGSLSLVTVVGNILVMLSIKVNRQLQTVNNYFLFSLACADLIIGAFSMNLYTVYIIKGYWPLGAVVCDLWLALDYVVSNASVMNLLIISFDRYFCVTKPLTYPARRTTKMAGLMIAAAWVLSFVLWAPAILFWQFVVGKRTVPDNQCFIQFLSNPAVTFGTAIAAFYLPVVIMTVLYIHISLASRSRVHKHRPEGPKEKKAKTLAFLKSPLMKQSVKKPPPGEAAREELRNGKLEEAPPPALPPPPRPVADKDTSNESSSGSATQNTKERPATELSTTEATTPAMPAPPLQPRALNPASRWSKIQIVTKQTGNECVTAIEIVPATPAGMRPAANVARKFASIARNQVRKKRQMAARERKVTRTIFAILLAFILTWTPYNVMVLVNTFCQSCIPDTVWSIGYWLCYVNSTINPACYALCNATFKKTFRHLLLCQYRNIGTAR
The assay is described as follows: Muscarinic binding activity: inhibition of 3H-QNB binding, m4 (and m4 selectivity). The following applies: for m4 Selectivity Ratio (Ki,m4/Ki,m2): Ki for m4 divided by Ki for m2.

The target in assay [3] is T3, cloned human m1 muscarinic receptor (Homo sapiens, UniProt P11229).
T3 construct: expressed in transfected cells; host or cells: CHO cells, stably transfected (membranes)
T3 sequence (P11229 1-460): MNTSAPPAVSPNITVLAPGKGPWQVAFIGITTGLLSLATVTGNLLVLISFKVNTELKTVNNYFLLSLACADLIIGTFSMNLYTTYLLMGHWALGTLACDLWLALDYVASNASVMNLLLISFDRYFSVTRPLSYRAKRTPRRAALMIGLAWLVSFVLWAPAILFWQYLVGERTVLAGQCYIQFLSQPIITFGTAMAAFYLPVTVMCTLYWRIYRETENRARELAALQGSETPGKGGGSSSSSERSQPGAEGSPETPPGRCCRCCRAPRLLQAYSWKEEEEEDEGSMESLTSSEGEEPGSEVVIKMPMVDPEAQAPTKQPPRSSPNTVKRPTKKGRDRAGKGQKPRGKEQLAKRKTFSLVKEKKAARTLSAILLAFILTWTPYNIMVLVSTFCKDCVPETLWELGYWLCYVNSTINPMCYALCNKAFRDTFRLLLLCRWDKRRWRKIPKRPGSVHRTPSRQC
The assay is described as follows: Muscarinic binding activity: inhibition of 3H-QNB binding, m1.

[4] abbreviates: 3H-QNB binding, membranes of transfected CHO cells, 25° C., 90 minutes, pH 7.4, read-out: Ki, m2.
The mark [5] stands for this setting: 3H-QNB binding, membranes of transfected CHO cells, 25° C., 90 minutes, pH 7.4, read-out: Ki, m4.
The mark [6] stands for this setting: 3H-QNB binding, membranes of transfected CHO cells, 25° C., 90 minutes, pH 7.4, read-out: Ki, m1.

For the molecule `C[C@H]1CC[C@@H]2N(C1)C[C@H]1[C@@H]3C[C@H]4[C@@H](CC(=O)[C@H]5C[C@@H](Cl)CC[C@@]54C)[C@@H]3CC[C@H]1[C@]2(C)O` [3-α-chloroimperialine], in the assay with m2 muscarinic, the “m2 muscarinic antagonist selectivity” value is given as “highly selective m2 muscarinic antagonist”.

`N#CN(c1ccc(S(=O)(=O)c2ccc3c(c2)OCO3)cc1)C1CCN(C2CCCCC2)CC1` [Example 2AC]: the Ki in assay [1] (setting [4]) is 0.44 nM; in assay [2] (setting [5]), 1.6 nM; in assay [3] (setting [6]), 10 nM. In assay [1], the “m2 Selectivity Ratio (Ki,m1/Ki,m2)” value stood at 22.7. For the same molecule, the “m4 Selectivity Ratio (Ki,m4/Ki,m2)” value in assay [2] stood at 3.6.

As for `N#CN(c1ccc(S(=O)(=O)C2CCCCC2)cc1)C1CCN(C2CCCCC2)CC1` [Example 2AK], the Ki in assay [1] (setting [4]) was 18.8 nM; in assay [2] (setting [5]) it was 25.5 nM; in assay [3] (setting [6]) it was 232 nM. Also, the “m2 Selectivity Ratio (Ki,m1/Ki,m2)” value in assay [1] is on record as 17.2. In assay [2], the “m4 Selectivity Ratio (Ki,m4/Ki,m2)” value is listed as 1.4.

Regarding `CC(=O)Nc1ccc([S+]([O-])c2ccc(N(C#N)C3CCN(C4CCCCC4)CC3)cc2)cc1` (stereo not shown) [Example 2AM], the Ki in assay [1] (setting [4]) was 13.7 nM; in assay [2] (setting [5]), 41.4 nM; in assay [3] (setting [6]), 212 nM. Further, the “m2 Selectivity Ratio (Ki,m1/Ki,m2)” value in assay [1] was determined as 15.5. Also, the “m4 Selectivity Ratio (Ki,m4/Ki,m2)” value in assay [2] stood at 3.0.

Take `COc1ccc([S+]([O-])c2ccc(N(C#N)C3CCN(C4CCCCC4)CC3)cc2)cc1` (stereo not shown) [Example 2E]: the Ki in assay [1] (setting [4]) turned out to be 9 nM; in assay [2] (setting [5]), 39.3 nM; in assay [3] (setting [6]), 189 nM. The “m2 Selectivity Ratio (Ki,m1/Ki,m2)” value in assay [1] worked out at 21.0. For the same molecule, the “m4 Selectivity Ratio (Ki,m4/Ki,m2)” value in assay [2] came to 4.4.

For `COc1ccc(S(=O)(=O)c2ccc(N(C)C3CCN(C4CCCCC4)CC3)cc2)cc1` [Example 2G], the Ki in assay [1] amounted to 15.2 nM; in assay [2] it was 50 nM; in assay [3], 285 nM. Besides, in assay [1], the “m2 Selectivity Ratio (Ki,m1/Ki,m2)” value was 18.8. Besides, the “m4 Selectivity Ratio (Ki,m4/Ki,m2)” value in assay [2] is given as 3.3.

Consider `C=CCN(c1ccc(S(=O)(=O)c2ccc(OC)cc2)cc1)C1CCN(C2CCCCC2)CC1` [Example 2I], for which, in assay [1], the Ki is 3.7 nM and the “m2 Selectivity Ratio (Ki,m1/Ki,m2)” value is recorded as 12.7. For the same molecule, in assay [2], the Ki was determined as 10.1 nM and the “m4 Selectivity Ratio (Ki,m4/Ki,m2)” value is given as 2.7. In addition, the affinity in assay [3] corresponds to a Ki of 47.1 nM.
